Experimental data taken from BindingDB's records for doi:10.1021/bi060184f (Abbott Laboratories, 2006).

Tests used:
Dipeptidyl peptidase 8 = Dipeptidyl peptidase 8 (Homo sapiens, UniProt Q6V1X1); experiment: DPP Inhibition Assay; conditions: pH 7.5; 22 °C
Dipeptidyl peptidase 4 = Dipeptidyl peptidase 4 (Homo sapiens, UniProt P27487); experiment: DPP Inhibition Assay; conditions: pH 7.5; 22 °C
Dipeptidyl peptidase 4, sequence (P27487 whole entry): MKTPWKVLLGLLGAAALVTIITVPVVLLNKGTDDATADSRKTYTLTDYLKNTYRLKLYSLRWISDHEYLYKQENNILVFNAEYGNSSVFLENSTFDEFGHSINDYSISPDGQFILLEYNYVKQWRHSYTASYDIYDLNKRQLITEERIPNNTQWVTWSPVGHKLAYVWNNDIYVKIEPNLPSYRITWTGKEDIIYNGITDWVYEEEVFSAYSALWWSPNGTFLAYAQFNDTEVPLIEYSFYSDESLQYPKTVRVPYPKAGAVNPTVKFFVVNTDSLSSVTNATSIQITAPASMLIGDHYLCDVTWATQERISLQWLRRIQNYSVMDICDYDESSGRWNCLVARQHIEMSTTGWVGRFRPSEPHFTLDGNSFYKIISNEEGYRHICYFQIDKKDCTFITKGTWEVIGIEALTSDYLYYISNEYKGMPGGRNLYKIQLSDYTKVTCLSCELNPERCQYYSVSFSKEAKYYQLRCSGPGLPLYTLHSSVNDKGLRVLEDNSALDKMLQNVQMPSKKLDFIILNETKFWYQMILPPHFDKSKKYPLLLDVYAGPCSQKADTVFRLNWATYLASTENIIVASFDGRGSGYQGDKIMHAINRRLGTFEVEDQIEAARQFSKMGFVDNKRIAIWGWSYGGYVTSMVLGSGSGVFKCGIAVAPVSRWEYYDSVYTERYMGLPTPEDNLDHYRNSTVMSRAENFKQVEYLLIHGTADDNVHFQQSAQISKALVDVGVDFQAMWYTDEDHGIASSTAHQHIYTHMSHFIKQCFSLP

Dipeptidyl peptidase 8, sequence (Q6V1X1 whole entry): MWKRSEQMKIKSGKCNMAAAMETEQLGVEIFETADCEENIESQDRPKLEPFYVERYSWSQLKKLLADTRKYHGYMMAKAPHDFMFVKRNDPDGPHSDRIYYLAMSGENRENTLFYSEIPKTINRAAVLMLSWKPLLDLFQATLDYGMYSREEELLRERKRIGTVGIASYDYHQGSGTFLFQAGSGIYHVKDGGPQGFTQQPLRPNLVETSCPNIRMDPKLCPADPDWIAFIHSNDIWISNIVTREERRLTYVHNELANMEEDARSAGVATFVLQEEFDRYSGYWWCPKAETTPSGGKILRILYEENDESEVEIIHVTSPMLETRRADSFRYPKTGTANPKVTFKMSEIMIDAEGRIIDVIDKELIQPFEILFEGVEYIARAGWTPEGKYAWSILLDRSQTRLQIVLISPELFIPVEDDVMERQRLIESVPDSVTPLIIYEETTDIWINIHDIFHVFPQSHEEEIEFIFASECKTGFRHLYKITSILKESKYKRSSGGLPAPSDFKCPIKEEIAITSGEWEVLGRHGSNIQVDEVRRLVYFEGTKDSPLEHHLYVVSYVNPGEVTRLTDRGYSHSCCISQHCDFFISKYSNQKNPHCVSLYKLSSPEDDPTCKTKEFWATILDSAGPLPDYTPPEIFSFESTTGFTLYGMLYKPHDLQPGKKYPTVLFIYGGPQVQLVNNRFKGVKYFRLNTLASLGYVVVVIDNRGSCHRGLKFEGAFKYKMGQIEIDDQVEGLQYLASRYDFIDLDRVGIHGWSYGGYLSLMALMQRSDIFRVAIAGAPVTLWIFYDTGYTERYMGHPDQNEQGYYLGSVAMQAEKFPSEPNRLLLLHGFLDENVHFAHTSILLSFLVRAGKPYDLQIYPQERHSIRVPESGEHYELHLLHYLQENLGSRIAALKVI

SMILES	Ki (Dipeptidyl peptidase 8)	Ki (Dipeptidyl peptidase 4)
CC#C[C@H]1CC[C@@H](C#N)N1C(=O)[C@@H](N)C1CCCC1 [(2S,5R)-1-((2S)-2-amino-2-cyclopentylethanoyl)-5-prop-1-ynylpyrrolidine-2-carbonitrile]	> 30 µM	–
Cn1c(=O)c2c(nc(N3CCC[C@@H](N)C3)n2Cc2ccccc2C#N)n(C)c1=O [Xanthine mimetic compound 6]	> 30 µM	0.002 µM
